This assay has as its system clinical isolates of M. tuberculosis. Put plainly: microbe, parasite or virus in culture. The class given is cell-based. The conditions noted are these: Mycobacterium tuberculosis.

Converted amounts (≈) assume the structure as drawn. Read-outs that look alike come from different tables or passages of the source.

With `COC(=O)/C=C/C(=O)c1ccc(OC)cc1` [IMB-YH-8], the MIC runs as follows: (clinical isolate 3303, resistant to INH, STR) 0.5 µg/mL (≈ 2.27 µM); (clinical isolate 4201, resistant to RIF) 0.25 µg/mL (≈ 1.14 µM); (clinical isolate 5112, resistant to INH, RIF, STR, EMB) 0.25 µg/mL (≈ 1.14 µM); (clinical isolate 5116, resistant to INH, RIF) 0.25 µg/mL (≈ 1.14 µM); (clinical isolate 5120, resistant to INH, STR, EMB) 0.5 µg/mL (≈ 2.27 µM); (clinical isolate 6133, resistant to INH, RIF) 0.25 µg/mL (≈ 1.14 µM). In addition, the MIC came to 1 µg/mL (≈ 4.54 µM) (clinical isolate 7153, resistant to INH, RIF); 0.5 µg/mL (≈ 2.27 µM) (clinical isolate 11277, resistant to INH, RIF, STR); 0.25 µg/mL (≈ 1.14 µM) (clinical isolate 12179, resistant to INH, RIF); 0.5 µg/mL (≈ 2.27 µM) (clinical isolate 12251, resistant to INH, RIF); 0.5 µg/mL (≈ 2.27 µM) (clinical isolate 16559, resistant to STR, OFX); 0.5 µg/mL (≈ 2.27 µM) (clinical isolate 20161, resistant to INH, RIF). The MIC (clinical isolate 23120, resistant to INH, RIF, STR) came to 0.25 µg/mL (≈ 1.14 µM); the MIC (clinical isolate 23443, resistant to RIF) stood at 0.5 µg/mL (≈ 2.27 µM); the MIC (read-out: MICs for drug-resistant isolates) lay within 0.25 to 1 µg/mL (≈ 1.14 to 4.54 µM).

The values are drawn from publication PMC5506005, “A novel protein kinase inhibitor IMB-YH-8 with anti-tuberculosis activity” (Scientific Reports, 2017).
